# Where two headings read alike, the source gives them in different places.
# Assays:
# [1] = system: human iPSC-derived 3D BrainSpheres; assay: BrainSphere MEA assay (HD-MEA, 13-day exposure, concentration-response); type: cell-based; settings: for AC50: concentration at 50% maximal activity, Supplement 3 prints it also for curves with hit call 0; as to hitc Mean.Spheroid.Burst.Duration: key: 1 (active); 0 (inactive); as to hitc Mean.Spheroid.Burst.ISI: key: 1 (active); 0 (inactive); as to hitc Mean.Spheroid.Burst.Peak.Firing.Rate: key: 1 (active); 0 (inactive); as to hitc Mean.Spheroid.Firing.Rate: key: 1 (active); 0 (inactive); as to hitc Mean.Spheroid.IBI: key: 1 (active); 0 (inactive); as to hitc Mean.Spheroid.Nonburst.ISI: key: 1 (active); 0 (inactive); as to hitc Mean.Spheroid.Spikes.per.Burst.per.Electrode: key: 1 (active); 0 (inactive); as to hitc Mean.Spheroid.Spikes.per.Burst: key: 1 (active); 0 (inactive); as to hitc Spheroid.Burst.Frequency: key: 1 (active); 0 (inactive); as to hitc Spheroid.Spike.Amplitude.90th.Percentile: key: 1 (active); 0 (inactive)
# Summary of the method: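 Recordings used a 5× RMS spike threshold and 600 s network scans of fixed electrode regions, each region clustered as one BrainSphere. Spheres had 7 weeks of differentiation and 48 h attachment on coated HD-MEA chips before day 0 of the 13-day concentration-response exposure. At least three independent plates were run.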
# 2D rat cortical cultures [2] = settings: cited from earlier work; for AC50: rNFA mc5
# 2D rat cortical cultures [3] = settings: cytotoxicity LDH, cited from earlier work
# [4] = AUC over 13-day exposure, tcplfit2
# [5] = tcplfit2 BMD at benchmark response (1.349*SD of baseline controls)
# [6] = tcplfit2 output ACC, activity cutoff in Supplemental Table 1
# [7] = top of winning model, response normalized as percent of vehicle control, negative = decrease
# For hitc CCTE Shafer MEA dev active electrodes number in this document: key: 1 (active); 0 (inactive).
# For hitc CCTE Shafer MEA dev burst duration mean in this document: key: 1 (active); 0 (inactive).
# For hitc CCTE Shafer MEA dev burst rate in this document: key: 1 (active); 0 (inactive).
# For hitc CCTE Shafer MEA dev bursting electrodes number in this document: key: 1 (active); 0 (inactive).
# For hitc CCTE Shafer MEA dev correlation coefficient mean in this document: key: 1 (active); 0 (inactive).
# For hitc CCTE Shafer MEA dev firing rate mean in this document: key: 1 (active); 0 (inactive).
# For hitc CCTE Shafer MEA dev inter network spike interval mean in this document: key: 1 (active); 0 (inactive).
# For hitc CCTE Shafer MEA dev interburst interval mean in this document: key: 1 (active); 0 (inactive).
# For hitc CCTE Shafer MEA dev mutual information norm in this document: key: 1 (active); 0 (inactive).
# For hitc CCTE Shafer MEA dev network spike duration std in this document: key: 1 (active); 0 (inactive).
# For hitc CCTE Shafer MEA dev network spike number in this document: key: 1 (active); 0 (inactive).
# For hitc CCTE Shafer MEA dev network spike peak in this document: key: 1 (active); 0 (inactive).
# For hitc CCTE Shafer MEA dev per burst interspike interval in this document: key: 1 (active); 0 (inactive).
# For hitc CCTE Shafer MEA dev per burst spike percent in this document: key: 1 (active); 0 (inactive).
# For hitc CCTE Shafer MEA dev per network spike spike number mean in this document: key: 1 (active); 0 (inactive).
# For hitc CCTE Shafer MEA dev per network spike spike percent in this document: key: 1 (active); 0 (inactive).
# For hitc CCTE Shafer MEA dev spike duration mean in this document: key: 1 (active); 0 (inactive).
compound,measurement,setting,value
[CH3][Hg][Cl] [Methylmercury],EC50,"[1]; 5th percentile across active AC50 values per chemical, read-out: Minimum potency",2410 nM
same,Difference of minimum potency between BrainSphere MEA assay and rNFA,"[1]; 5th percentile of AC50 values by chemical, above 0.5 = more potent in the rNFA",more than 0.5 log10 µM
same,hitc Mean.Spheroid.Burst.Duration,[1]; [4],1
same,hitc Mean.Spheroid.Burst.ISI,[1]; [4],1
same,hitc Mean.Spheroid.Burst.Peak.Firing.Rate,[1]; [4],1
same,hitc Mean.Spheroid.Firing.Rate,[1]; [4],1
same,hitc Mean.Spheroid.IBI,[1]; [4],1
same,hitc Mean.Spheroid.Nonburst.ISI,[1]; [4],1
same,hitc Mean.Spheroid.Spikes.per.Burst,[1]; [4],1
same,hitc Mean.Spheroid.Spikes.per.Burst.per.Electrode,[1]; [4],1
same,hitc Spheroid.Burst.Frequency,[1]; [4],1
same,hitc Spheroid.Spike.Amplitude.90th.Percentile,[1]; [4],1
same,"Bioactivity trend over time for MFR, mean spike amplitude and burst frequency (qualitative)","[1]; DOE 0-13, highest tested concentrations, Fig. 3",appeared to decrease activity
same,AC50,"[1]; listed as Methylmercuric(II) chloride, read-out: ac50 Mean.Spheroid.Burst.Duration",5900 nM
same,AC50,"[1]; listed as Methylmercuric(II) chloride, read-out: ac50 Mean.Spheroid.Burst.ISI",3300 nM
same,AC50,"[1]; listed as Methylmercuric(II) chloride, read-out: ac50 Mean.Spheroid.Burst.Peak.Firing.Rate",3000 nM
same,AC50,"[1]; listed as Methylmercuric(II) chloride, read-out: ac50 Mean.Spheroid.Firing.Rate",7700 nM
same,AC50,"[1]; listed as Methylmercuric(II) chloride, read-out: ac50 Mean.Spheroid.IBI",6300 nM
same,AC50,"[1]; listed as Methylmercuric(II) chloride, read-out: ac50 Mean.Spheroid.Nonburst.ISI",2600 nM
same,AC50,"[1]; listed as Methylmercuric(II) chloride, read-out: ac50 Mean.Spheroid.Spikes.per.Burst",7900 nM
same,AC50,"[1]; listed as Methylmercuric(II) chloride, read-out: ac50 Mean.Spheroid.Spikes.per.Burst.per.Electrode",6500 nM
same,AC50,"[1]; listed as Methylmercuric(II) chloride, read-out: ac50 Spheroid.Burst.Frequency",2300 nM
same,AC50,"[1]; listed as Methylmercuric(II) chloride, read-out: ac50 Spheroid.Spike.Amplitude.90th.Percentile",16000 nM
same,AC50,[1]; read-out: ac50 Mean.Spheroid.Burst.Duration,5910 nM
same,AC50,[1]; read-out: ac50 Mean.Spheroid.Burst.ISI,3340 nM
same,AC50,[1]; read-out: ac50 Mean.Spheroid.Burst.Peak.Firing.Rate,3020 nM
same,AC50,[1]; read-out: ac50 Mean.Spheroid.Firing.Rate,7680 nM
same,AC50,[1]; read-out: ac50 Mean.Spheroid.IBI,6320 nM
same,AC50,[1]; read-out: ac50 Mean.Spheroid.Nonburst.ISI,2560 nM
same,AC50,[1]; read-out: ac50 Mean.Spheroid.Spikes.per.Burst,7900 nM
same,AC50,[1]; read-out: ac50 Mean.Spheroid.Spikes.per.Burst.per.Electrode,6460 nM
same,AC50,[1]; read-out: ac50 Spheroid.Burst.Frequency,2290 nM
same,AC50,[1]; read-out: ac50 Spheroid.Spike.Amplitude.90th.Percentile,16000 nM
same,EC50,"[1]; mean across active AC50 values per chemical, read-out: Mean potency",6150 nM
same,Percent active,[1]; metrics active out of the total number of metrics screened,100%
same,BMD Mean.Spheroid.Burst.Duration,[1]; [5],5.5 µM
same,BMD Mean.Spheroid.Burst.ISI,[1]; [5],2.3 µM
same,BMD Mean.Spheroid.Burst.Peak.Firing.Rate,[1]; [5],2.6 µM
same,BMD Mean.Spheroid.Firing.Rate,[1]; [5],7.8 µM
same,BMD Mean.Spheroid.IBI,[1]; [5],5.9 µM
same,BMD Mean.Spheroid.Nonburst.ISI,[1]; [5],1.8 µM
same,BMD Mean.Spheroid.Spikes.per.Burst,[1]; [5],7.7 µM
same,BMD Mean.Spheroid.Spikes.per.Burst.per.Electrode,[1]; [5],6.2 µM
same,BMD Spheroid.Burst.Frequency,[1]; [5],2.4 µM
same,BMD Spheroid.Spike.Amplitude.90th.Percentile,[1]; [5],5.1 µM
same,ACC Mean.Spheroid.Burst.Duration,[1]; [6],5.4 µM
same,ACC Mean.Spheroid.Burst.ISI,[1]; [6],1.7 µM
same,ACC Mean.Spheroid.Burst.Peak.Firing.Rate,[1]; [6],2.5 µM
same,ACC Mean.Spheroid.Firing.Rate,[1]; [6],8.2 µM
same,ACC Mean.Spheroid.IBI,[1]; [6],6.3 µM
same,ACC Mean.Spheroid.Nonburst.ISI,[1]; [6],2.2 µM
same,ACC Mean.Spheroid.Spikes.per.Burst,[1]; [6],8 µM
same,ACC Mean.Spheroid.Spikes.per.Burst.per.Electrode,[1]; [6],6.4 µM
same,ACC Spheroid.Burst.Frequency,[1]; [6],2 µM
same,ACC Spheroid.Spike.Amplitude.90th.Percentile,[1]; [6],10 µM
same,Top Mean.Spheroid.Burst.Duration,[1]; [7],−97
same,Top Mean.Spheroid.Burst.ISI,[1]; [7],−99
same,Top Mean.Spheroid.Burst.Peak.Firing.Rate,[1]; [7],−95
same,Top Mean.Spheroid.Firing.Rate,[1]; [7],−88
same,Top Mean.Spheroid.IBI,[1]; [7],−94
same,Top Mean.Spheroid.Nonburst.ISI,[1]; [7],−100
same,Top Mean.Spheroid.Spikes.per.Burst,[1]; [7],−100
same,Top Mean.Spheroid.Spikes.per.Burst.per.Electrode,[1]; [7],−95
same,Top Spheroid.Burst.Frequency,[1]; [7],−100
same,Top Spheroid.Spike.Amplitude.90th.Percentile,[1]; [7],−21
same,Hits,"[1]; total number of active endpoints out of 10 MEA activity metrics, 13-day exposure",10
same,AC50,"2D rat cortical cultures [2]; aenm active_electrodes_number, read-out: ac50 CCTE_Shafer_MEA_dev_active_electrodes_number",360 nM
same,AC50,"2D rat cortical cultures [2]; aenm burst_duration_mean, read-out: ac50 CCTE_Shafer_MEA_dev_burst_duration_mean",260 nM
same,AC50,"2D rat cortical cultures [2]; aenm burst_rate, read-out: ac50 CCTE_Shafer_MEA_dev_burst_rate",207 nM
same,AC50,"2D rat cortical cultures [2]; aenm bursting_electrodes_number, read-out: ac50 CCTE_Shafer_MEA_dev_bursting_electrodes_number",370 nM
same,AC50,"2D rat cortical cultures [2]; aenm correlation_coefficient_mean, read-out: ac50 CCTE_Shafer_MEA_dev_correlation_coefficient_mean",306 nM
same,AC50,"2D rat cortical cultures [2]; aenm firing_rate_mean, read-out: ac50 CCTE_Shafer_MEA_dev_firing_rate_mean",177 nM
same,AC50,"2D rat cortical cultures [2]; aenm inter_network_spike_interval_mean, read-out: ac50 CCTE_Shafer_MEA_dev_inter_network_spike_interval_mean",6 nM
same,AC50,"2D rat cortical cultures [2]; aenm interburst_interval_mean, read-out: ac50 CCTE_Shafer_MEA_dev_interburst_interval_mean",340 nM
same,AC50,"2D rat cortical cultures [2]; aenm mutual_information_norm, read-out: ac50 CCTE_Shafer_MEA_dev_mutual_information_norm",134 nM
same,AC50,"2D rat cortical cultures [2]; aenm network_spike_duration_std, read-out: ac50 CCTE_Shafer_MEA_dev_network_spike_duration_std",164 nM
same,AC50,"2D rat cortical cultures [2]; aenm network_spike_number, read-out: ac50 CCTE_Shafer_MEA_dev_network_spike_number",87 nM
same,AC50,"2D rat cortical cultures [2]; aenm network_spike_peak, read-out: ac50 CCTE_Shafer_MEA_dev_network_spike_peak",356 nM
same,AC50,"2D rat cortical cultures [2]; aenm per_burst_interspike_interval, read-out: ac50 CCTE_Shafer_MEA_dev_per_burst_interspike_interval",322 nM
same,AC50,"2D rat cortical cultures [2]; aenm per_burst_spike_percent, read-out: ac50 CCTE_Shafer_MEA_dev_per_burst_spike_percent",306 nM
same,AC50,"2D rat cortical cultures [2]; aenm per_network_spike_spike_number_mean, read-out: ac50 CCTE_Shafer_MEA_dev_per_network_spike_spike_number_mean",536 nM
same,AC50,"2D rat cortical cultures [2]; aenm per_network_spike_spike_percent, read-out: ac50 CCTE_Shafer_MEA_dev_per_network_spike_spike_percent",309 nM
same,AC50,"2D rat cortical cultures [2]; aenm spike_duration_mean, read-out: ac50 CCTE_Shafer_MEA_dev_spike_duration_mean",275 nM
same,hitc CCTE_Shafer_MEA_dev_active_electrodes_number,"2D rat cortical cultures [2]; rNFA mc5 hit call, aenm active_electrodes_number",1
same,hitc CCTE_Shafer_MEA_dev_burst_duration_mean,"2D rat cortical cultures [2]; rNFA mc5 hit call, aenm burst_duration_mean",1
same,hitc CCTE_Shafer_MEA_dev_burst_rate,"2D rat cortical cultures [2]; rNFA mc5 hit call, aenm burst_rate",1
same,hitc CCTE_Shafer_MEA_dev_bursting_electrodes_number,"2D rat cortical cultures [2]; rNFA mc5 hit call, aenm bursting_electrodes_number",1
same,hitc CCTE_Shafer_MEA_dev_correlation_coefficient_mean,"2D rat cortical cultures [2]; rNFA mc5 hit call, aenm correlation_coefficient_mean",1
same,hitc CCTE_Shafer_MEA_dev_firing_rate_mean,"2D rat cortical cultures [2]; rNFA mc5 hit call, aenm firing_rate_mean",1
same,hitc CCTE_Shafer_MEA_dev_inter_network_spike_interval_mean,"2D rat cortical cultures [2]; rNFA mc5 hit call, aenm inter_network_spike_interval_mean",1
same,hitc CCTE_Shafer_MEA_dev_interburst_interval_mean,"2D rat cortical cultures [2]; rNFA mc5 hit call, aenm interburst_interval_mean",1
same,hitc CCTE_Shafer_MEA_dev_mutual_information_norm,"2D rat cortical cultures [2]; rNFA mc5 hit call, aenm mutual_information_norm",1
same,hitc CCTE_Shafer_MEA_dev_network_spike_duration_std,"2D rat cortical cultures [2]; rNFA mc5 hit call, aenm network_spike_duration_std",1
same,hitc CCTE_Shafer_MEA_dev_network_spike_number,"2D rat cortical cultures [2]; rNFA mc5 hit call, aenm network_spike_number",1
same,hitc CCTE_Shafer_MEA_dev_network_spike_peak,"2D rat cortical cultures [2]; rNFA mc5 hit call, aenm network_spike_peak",1
same,hitc CCTE_Shafer_MEA_dev_per_burst_interspike_interval,"2D rat cortical cultures [2]; rNFA mc5 hit call, aenm per_burst_interspike_interval",1
same,hitc CCTE_Shafer_MEA_dev_per_burst_spike_percent,"2D rat cortical cultures [2]; rNFA mc5 hit call, aenm per_burst_spike_percent",1
same,hitc CCTE_Shafer_MEA_dev_per_network_spike_spike_number_mean,"2D rat cortical cultures [2]; rNFA mc5 hit call, aenm per_network_spike_spike_number_mean",1
same,hitc CCTE_Shafer_MEA_dev_per_network_spike_spike_percent,"2D rat cortical cultures [2]; rNFA mc5 hit call, aenm per_network_spike_spike_percent",1
same,hitc CCTE_Shafer_MEA_dev_spike_duration_mean,"2D rat cortical cultures [2]; rNFA mc5 hit call, aenm spike_duration_mean",1
same,hitc CCTE_Shafer_MEA_dev_LDH,2D rat cortical cultures [3]; rNFA mc5 hit call,1
same,AC50,"2D rat cortical cultures [3]; read-out: ac50 CCTE_Shafer_MEA_dev_LDH, rNFA mc5",182 nM

# — paper PMC12198282, “Application of a high-density microelectrode array assay using a 3D human iPSC-derived brain microphysiological system model for in vitro neurotoxicity screening of environmental compounds” (Archives of Toxicology, 2025)
